Source: patent publication US10688200B2, “Urea-based prostate specific membrane antigen (PSMA) inhibitors for imaging and therapy” (Five Eleven Pharma Inc., priority 2015, dated 2020)

Assay: Biodistribution of radiotracers in normal mice
Assay type: in vivo, mouse
Settings: normal male mice
Experimental: Normal CD-1 male mice were injected via the tail vein with 35 μCi of [^68Ga] radiotracers (0.2 nmole of ligand). […] All organs were removed and blood was also collected. Each organ was weighed, and the tissue radioactivity was measured with an automated gamma counter (Wizard, Perkin Elmer). The % ID/g was calculated by comparison with samples of a standard dilution of the initial dose. All measurements were corrected for decay.

Row | Biodistribution: Blood (2 min) | Biodistribution: Bone (2 min) | Biodistribution: Brain (2 min) | Biodistribution: Heart (2 min) | Biodistribution: Kidney (2 min) | Biodistribution: Liver (2 min) | Biodistribution: Lung (2 min) | Biodistribution: Muscle (2 min) | Biodistribution: Pancreas (2 min) | Biodistribution: Skin (2 min) | Biodistribution: Spleen (2 min) | Biodistribution: Blood (60 min) | Biodistribution: Bone (60 min) | Biodistribution: Brain (60 min) | Biodistribution: Heart (60 min) | Biodistribution: Kidney (60 min) | Biodistribution: Liver (60 min) | Biodistribution: Lung (60 min) | Biodistribution: Muscle (60 min) | Biodistribution: Pancreas (60 min) | other results | Compound
1 | 8.55 ± 0.07 % dose/g | 2.30 ± 0.07 % dose/g | 0.28 ± 0.04 % dose/g | 3.48 ± 0.31 % dose/g | 47.2 ± 2.68 % dose/g | 2.91 ± 0.15 % dose/g | 5.42 ± 0.23 % dose/g | 2.16 ± 0.34 % dose/g | 2.20 ± 0.04 % dose/g | 3.00 ± 0.40 % dose/g | 3.58 ± 0.48 % dose/g | 0.58 ± 0.07 % dose/g | 1.24 ± 0.19 % dose/g | 0.03 ± 0.01 % dose/g | 0.43 ± 0.14 % dose/g | 83.5 ± 14.7 % dose/g | 0.79 ± 0.15 % dose/g | 0.90 ± 0.16 % dose/g | 0.60 ± 0.13 % dose/g | 1.13 ± 0.17 % dose/g | Biodistribution: Skin (60 min): 1.07 ± 0.16 % dose/g; Biodistribution: Spleen (60 min): 1.63 ± 0.20 % dose/g | O=C(O)CC[C@H](NC(=O)N[C@@H](CCCCNC(=O)CCCCCNC(=O)CCc1ccc2c(c1)C[N+]13CC[N+]45CC(=O)[O][68Ga-3]14([O]C(=O)C3)([O]2)[O]c1ccc(CCC(=O)NCC(=O)O)cc1C5)C(=O)O)C(=O)O (stereo partly drawn) [[^68Ga]1c]
2 | 7.44 ± 1.40 % dose/g | 2.01 ± 0.24 % dose/g | 0.23 ± 0.04 % dose/g | 3.18 ± 0.48 % dose/g | 50.3 ± 8.32 % dose/g | 2.36 ± 0.27 % dose/g | 4.96 ± 0.67 % dose/g | 1.96 ± 0.08 % dose/g | 1.83 ± 0.40 % dose/g | 2.30 ± 0.20 % dose/g | 3.40 ± 0.91 % dose/g | 0.44 ± 0.06 % dose/g | 0.70 ± 0.09 % dose/g | 0.03 ± 0.00 % dose/g | 0.42 ± 0.01 % dose/g | 141.7 ± 0.82 % dose/g | 0.68 ± 0.11 % dose/g | 1.10 ± 0.13 % dose/g | 0.50 ± 0.07 % dose/g | 1.02 ± 0.18 % dose/g | Biodistribution: Skin (60 min): 0.81 ± 0.11 % dose/g; Biodistribution: Spleen (60 min): 5.11 ± 0.97 % dose/g | C[C@H](NC(=O)CCc1ccc2c(c1)C[N+]13CC[N+]45CC(=O)[O][68Ga-3]41([O]C(=O)C3)([O]c1ccc(CCC(=O)NCCCCCC(=O)NCCCC[C@H](NC(=O)N[C@@H](CCC(=O)O)C(=O)O)C(=O)O)cc1C5)[O]2)C(=O)O (stereo partly drawn) [[^68Ga]1d]
3 | 7.47 ± 0.33 % dose/g | 2.33 ± 0.05 % dose/g | 0.25 ± 0.07 % dose/g | 3.12 ± 0.17 % dose/g | 46.6 ± 3.01 % dose/g | 2.00 ± 0.09 % dose/g | 5.08 ± 0.13 % dose/g | 2.01 ± 0.09 % dose/g | 1.80 ± 0.17 % dose/g | 2.46 ± 0.32 % dose/g | 3.69 ± 0.45 % dose/g | 0.45 ± 0.14 % dose/g | 0.52 ± 0.06 % dose/g | 0.02 ± 0.00 % dose/g | 0.28 ± 0.05 % dose/g | 113 ± 28.5 % dose/g | 0.35 ± 0.09 % dose/g | 1.14 ± 0.30 % dose/g | 0.33 ± 0.07 % dose/g | 0.74 ± 0.19 % dose/g | Biodistribution: Skin (60 min): 0.67 ± 0.06 % dose/g; Biodistribution: Spleen (60 min): 3.03 ± 0.90 % dose/g | O=C(O)CC[C@H](NC(=O)N[C@@H](CCCCNC(=O)CCCCCNC(=O)CCc1ccc2c(c1)C[N+]13CC[N+]45CC(=O)[O][68Ga-3]14([O]C(=O)C3)([O]2)[O]c1ccc(CCC(=O)N[C@@H](CC(=O)O)C(=O)O)cc1C5)C(=O)O)C(=O)O (stereo partly drawn) [[^68Ga]1e]
